In patent publication US20260216347A1, “Substituted Imidazo-Based Compounds as Ligand Directed Degraders of IRAK3” (Celgene Corporation, priority 2022, published 2026):
pIC50: −log10 of the molar value.

Legend:
[1] = molecular target: T1, IRAK3 (Homo sapiens, UniProt Q9Y616); assay: IRAK3 biochemical binding assay (LanthaScreen Eu Kinase Binding, TR-FRET)
T1 construct: IRAK Endogenous HTRF Degradation Assay; endogenous in cells
T1 sequence (Q9Y616 1-596): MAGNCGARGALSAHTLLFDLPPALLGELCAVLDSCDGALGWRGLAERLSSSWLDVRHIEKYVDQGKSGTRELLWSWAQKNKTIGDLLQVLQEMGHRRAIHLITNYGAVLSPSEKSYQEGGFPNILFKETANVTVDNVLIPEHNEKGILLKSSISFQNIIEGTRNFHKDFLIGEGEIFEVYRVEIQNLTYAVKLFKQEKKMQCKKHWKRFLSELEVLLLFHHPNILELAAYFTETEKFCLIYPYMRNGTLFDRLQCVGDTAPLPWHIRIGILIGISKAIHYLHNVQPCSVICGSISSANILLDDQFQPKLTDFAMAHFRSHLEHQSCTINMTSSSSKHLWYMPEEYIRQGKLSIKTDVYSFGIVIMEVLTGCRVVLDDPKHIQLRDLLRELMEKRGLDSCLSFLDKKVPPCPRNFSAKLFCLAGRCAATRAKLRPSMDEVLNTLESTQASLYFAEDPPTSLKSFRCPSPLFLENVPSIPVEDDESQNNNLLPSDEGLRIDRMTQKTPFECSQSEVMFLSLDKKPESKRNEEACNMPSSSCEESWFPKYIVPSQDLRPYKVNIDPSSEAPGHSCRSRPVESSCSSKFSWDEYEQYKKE
Description: Example B3. IRAK3 Biochemical Binding Assay
The LanthaScreen® Eu Kinase Binding assay was performed as described by the vendor (ThermoFisher Scientific Waltham, MA). Briefly, 100× solutions of compound were prepared in DMSO via serial dilution of the 10 mM stock solution in a 384-well reagent plate using 3-fold intervals to achieve final concentrations. 1 μL of the compound dilution series were added to the corresponding wells of a 384-well reagent plate containing 32.3 μL of 1× buffer (50 mM HEPES pH 7.4, […], 1 mM EGTA, 0.01% Brij-35). 5 μL of the buffer diluted compounds were transferred to the corresponding wells of a 384-well assay plate. 5 μL of 3× tracer was transferred to each well of the assay plate for a final tracer concentration of 10 nM. Finally, 5 μL of the 3×Eu-Anti-GST and IRAK3 mix was transferred to each well for a final concentration of 2 nM and 10 nM respectively. Reactions were allowed to incubate for 1 hour at room temperature. TR-FRET signal of the interaction (λex340/λem 665/λem 615) was read at room temperature with a delay time of 100 ρs and an integration time of 200 ρs using an Envision plate reader. Background corrected emission signal ratios at each compound concentration were used to calculate percentage of inhibition (% Inhibition). Plots of % Inhibition versus inhibitor concentrations were fit according to a dose-response equation (Eq. 1) to generate IC50 and Hill slope values using Dotmatics software (Dotmatics, Bishops Stortford, Hertfordshire, England).
Using these assays, IC50, Dmax, EC50, and DC50 values of the following compounds were determined. Dmax is defined as the maximum percent degradation achieved and DC50 is the concentration at which 50% degradation is achieved.

[2] = molecular target: T2, IRAK3-ePL (Homo sapiens, UniProt Q9Y616); assay: IRAK3-ePL overexpressing degradation assay (InCELL Hunter luminescence, dose response); format: cell-based; settings: for IRAK3 ePL degradation Ymin: lowest percentage of target protein remaining following compound treatment; for DC50: read-out: IRAK3 ePL degradation EC50
T2 construct: expressed in transfected cells; host or cells: 293T CRBN OE/GSPT1 G575N KI cells, lentiviral transduction, puromycin selected
Description: Example B1. IRAK3-ePL Overexpressing Degradation Assay
Stable cell lines were generated by the following protocol. 3×10^5 Lenti-X 293T cells (Clonetech) were plated in 0.8 mL of media in a 12-well plate and incubated overnight at 37° C./5% CO2. Packaging plasmid (0.4 μg, pMD), envelope plasmid (0.4 μg, pSP), and lentiviral transfer IRAK3-ePL plasmid (0.8 μg, TRAK3 sequence NM_007199.3) were mixed in 0.1 mL of Opti-MEM and incubated for 5 min. Simultaneously, 2.4 μL of Lipofectamine 2000 (Invitrogen) was added to 0.1 mL of Opti-MEM (Gibco) and incubated for 5 min. The plasmid DNA and lipofectamine were combined and the mixture was allowed to incubate for 20 min.DNA:Lipofectamine Opti-MEM mixtures were then added to previously plated cells dropwise and the cells were incubated for ~16 h at 37° C./5% CO2. Following incubation, the media was removed and 1.2 mL of fresh media was added per well. Lenti-X 293T cells were incubated for ~30 h at 37° C./5% CO2. […] Following incubation, media was removed from the Lenti-X 293T wells and passed through a […] filter. Part of the viral supernatant was used to transduce cells and the rest was stored at −80° C. Viruses were then added individually (0.5 mL virus) to each well of the 293T^CRBN OE/GSPT1 G575N KI cells, followed by addition of polybrene (10 mg/mL Millipore) to each well at a final concentration of 5.0 μg/mL. Cells were incubated for ~24 h at 37° C./5% CO2. After aspirating media off plates, cells were washed with DPBS, trypsinized and plated in a 10 cm dish in 15 mL of media and […] puromycin. Following incubation of cells for ~72 h at 37° C./5% CO2, media was aspirated off plates, and cells were washed with DPBS and trypsinized. The cells were plated in a 15 cm dish in 40 mL of media with 1.0 μg/mL Puromycin (Gibco) and incubated for ~72 h at 37° C./5% CO2. Following incubation, media was removed and cells were washed with DPBS and trypsinized. The majority of cells were resuspended in Invitrogen freezing media and stored away (~6-8×10^6 cells/vial).
IRAK3-ePL cellular dose response curve degradation assays were performed by the following protocol. Compounds to be tested were dispensed into a white 384-well tissue-culture treated plate using an acoustic liquid handler. Dilutions were prepared based on a 25 μL assay volume in duplicate 10 point 3-fold serial dilutions starting with a 10 μM dose. Negative control wells were included, which only contain 0.2% DMSO to calculate 100% signal. Positive control wells containing 30 μM Ataluren (luciferase inhibitor) were included to calculate the background signal level. All wells were backfilled to a final DMSO concentration of 0.2% to ensure DMSO uniformity across wells. IRAK3-ePL expressing cells (IRAK3-ePL Lenti-X 293T^CRBN/GSPT1 G575N) were washed, trypsinized, counted, and resuspended in fresh DMEM (Gibco) to give a cell concentration of 200,000 cells/mL. 25 μL of cells (5,000 cells/well) were dispensed into the wells of the 384-well plate prespotted with compounds in the previous step and incubated overnight at 37° C./5% CO2. Following incubation, the 384-well plate was taken out of the incubator and left at room temperature for 30 min. InCELL hunter reagent was prepared according to manufacturer's instructions (EA reagent, lysis buffer, and substrate reagent in a 1:1:4 ratio, Cat #96-0002, DiscoverX), which was added to the 384-well plate 25 μL per well. Following the incubation of the plate for 1 h at room temperature, the luminescence signal was read using a ViewLux plate reader. Data was processed and analyzed in ActivityBase software. In short, the average luminescence values of the positive control wells were subtracted from the rest of the wells for background correction, and all luminescence values were normalized to the DMSO control wells. The average value of the DMSO control wells was set to equal 100% of the relative IRAK3-ePL protein levels. […]

Row | pIC50 [1] | IRAK3 ePL degradation Ymin [2] | DC50 [2] | SMILES
1 | 8.23 | 14% | 1 nM | Cc1cccc(-c2cnc(Nc3cnn(C4CCN(CCN5CCN(c6ccc(C7CCC(=O)NC7=O)cc6)CC5)CC4)c3)c3nccn23)c1 (stereo not drawn) [Compound 5, 3-(4-(4-(2-(4-(4-((5-(m-tolyl)imidazo[1,2-a]pyrazin-8-yl)amino)-1H-pyrazol-1-yl)piperidin-1-yl)ethyl)piperazin-1-yl)phenyl) piperidine-2,6-dione]
2 | 8.82 | 23% | 1.7 nM | Cc1cc(-c2cnc(Nc3cnn([C@H]4CCN(CCN5CCN(c6ccc(C7CCC(=O)NC7=O)cc6)C[C@@H]5C)[C@@H](C)C4)c3)c3nccn23)c(F)cc1F (stereo partly drawn) [Compound 34, 3-(4-((S)-4-(2-((2S,4S)-4-(4-((5-(2,4-difluoro-5-methylphenyl)imdazo [1,2-a]pyrazin-8-yl)amino)-1H-pyrazol-1-yl)-2-methylpiperidin-1-yl)ethyl)-3-methylpiperazin-1-yl)phenyl) piperidine-2,6-dione]
3 | 7.57 | 29% | 5.5 nM | Cc1ccc(-c2cnc(Nc3cnn(C4CCN(CCN5CCN(c6ccc(C7CCC(=O)NC7=O)cc6)CC5)CC4)c3)c3nccn23)cc1 (stereo not drawn) [Compound 78, 3-(4-(4-(2-(4-(4-((5-(p-tolyl)imidazo[1,2-a]pyrazin-8-yl)amino)-1H-pyrazol-1-yl)piperidin-1-yl)ethyl)piperazin-1-yl)phenyl) piperidine-2,6-dione]
4 | 6.59 | 29% | 29 nM | Cc1ccccc1-c1cnc(Nc2cnn(C3CCN(CCN4CCN(c5ccc(C6CCC(=O)NC6=O)cc5)CC4)CC3)c2)c2nccn12 (stereo not drawn) [Compound 79, 3-(4-(4-(2-(4-(4-((5-(o-tolyl)imidazo[1,2-a]pyrazin-8-yl)amino)-1H-pyrazol-1-yl)piperidin-1-yl)ethyl)piperazin-1-yl)phenyl) piperidine-2,6-dione]
5 | 5.80 | 90% |  | CS(=O)(=O)c1ccccc1-c1cnc(Nc2cnn(C3CCN(CCN4CCN(c5ccc(C6CCC(=O)NC6=O)cc5)CC4)CC3)c2)c2nccn12 (stereo not drawn) [Compound 83, 3-(4-(4-(2-(4-(4-((5-(2-(methylsulfonyl)phenyl)imidazo[1,2-a]pyrazin-8-yl)amino)-1H-pyrazol-1-yl)piperidin-1-yl)ethyl)piperazin-1-yl)phenyl) piperidine-2,6-dione]
6 | 8.19 | 15% | 0.51 nM | O=C1CCC(c2ccc(N3CCN(CCN4CCC(n5cc(Nc6ncc(-c7ccc8c(c7)NC(=O)CO8)n7ccnc67)cn5)CC4)CC3)cc2)C(=O)N1 (stereo not drawn) [Compound 15, 3-(4-(4-(2-(4-(4-((5-(3-oxo-3,4-dihydro-2H-benzo[b][1,4]oxazin-6-yl)imidazo[1,2-a]pyrazin-8-yl)amino)-1H-pyrazol-1-yl)piperidin-1-yl)ethyl)piperazin-1-yl)phenyl) piperidine-2,6-dione]
7 | 8.54 | 16% | 0.77 nM | Cc1cccc(-c2cnc(Nc3cnn(C4CCN(CC(=O)N5CCN(c6ccc(C7CCC(=O)NC7=O)cc6)CC5)CC4)c3)c3nccn23)c1 (stereo not drawn) [Compound 20, 3-(4-(4-(2-(4-(4-((5-(m-tolyl)imidazo[1,2-a]pyrazin-8-yl)amino)-1H-pyrazol-1-yl)piperidin-1-yl)acetyl)piperazin-1-yl)phenyl)piperidine-2,6-dione]
8 | 7.44 | 23% | 1.4 nM | C[C@@H]1CN(c2ccc(C3CCC(=O)NC3=O)cc2)CCN1CCN1CCC(n2cc(Nc3ncc(C4CC4)n4ccnc34)cn2)CC1 (stereo partly drawn) [Compound 32, 3-(4-((R)-4-(2-(4-(4-((5-cyclopropylimidazo[1,2-a]pyrazin-8-yl)amino)-1H-pyrazol-1-yl)piperidin-1-yl)ethyl)-3-methylpiperazin-1-yl)phenyl) piperidine-2,6-dione]
9 | 8.59 |  |  | Cc1cc(-c2ccc(Nc3cnn([C@H]4CC[C@H](CCN5CCN(c6ccc(C7CCC(=O)NC7=O)cc6)CC5)CC4)c3)c3nccn23)c(F)cc1F (stereo partly drawn) [Compound 108]
10 | 9.32 |  |  | Cc1cc(-c2cnc(Nc3cnn([C@@H]4CCCN(CCN5CCN(c6ccc(C7CCC(=O)NC7=O)cc6)CC5)CC4)c3)c3nccn23)c(F)cc1F (single isomer, unassigned) [Compound 112]
11 | 9.59 |  |  | Cc1cc(-c2cnc(Nc3cnn(C4CCN(CCN5CCC(n6cc(C7CCC(=O)NC7=O)cn6)CC5)CC4)c3)c3nccn23)c(F)cc1F (stereo not drawn) [Compound 109, 3-(1-(1-(2-(4-(4-((5-(2,4-difluoro-5-methylphenyl)imdazo [1,2-a]pyrazin-8-yl)amino)-1H-pyrazol-1-yl)piperidin-1-yl)ethyl)piperidin-4-yl)-1H-pyrazol-4-yl)piperidine-2,6-dione]
12 | 7.60 |  |  | Cn1nc(C2CCC(=O)NC2=O)c2ccc(N3CCN(CCN4CCC(n5cc(Nc6ncc(C7CC7)n7ccnc67)cn5)CC4)CC3)cc21 (stereo not drawn) [Compound 115, 3-(6-(4-(2-(4-(4-((5-cyclopropylimidazo[1,2-a]pyrazin-8-yl)amino)-1H-pyrazol-1-yl)piperidin-1-yl)ethyl)piperazin-1-yl)-1-methyl-1H-indazol-3-yl)piperidine-2,6-dione]
